Reference: the NIST ThermoML archive (doi:10.1021/je400056z)
Numbers after ± are expanded uncertainties.

Test: xn = mol fraction of the nth substance listed
Conditions: Liquid, Vibrating tube method

CCCCCCCCCCCCC [tridecane] + O=C=O
Conditions | mass density [kg/m3]
313.15 K, 9000 kPa, x2 = 0.0955 | 750.6 ± 0.3
313.15 K, 9000 kPa, x2 = 0.2526 | 754.3 ± 0.3
313.15 K, 9000 kPa, x2 = 0.7549 | 791.4 ± 0.3
313.15 K, 9000 kPa, x2 = 0.8978 | 790.8 ± 0.3
313.15 K, 10000 kPa, x2 = 0.0955 | 751.4 ± 0.3
313.15 K, 10000 kPa, x2 = 0.2526 | 755.1 ± 0.3
313.15 K, 10000 kPa, x2 = 0.7549 | 794.4 ± 0.3
313.15 K, 10000 kPa, x2 = 0.8978 | 795.2 ± 0.3
313.15 K, 11000 kPa, x2 = 0.0955 | 752.2 ± 0.3
313.15 K, 11000 kPa, x2 = 0.2526 | 756 ± 0.3
313.15 K, 11000 kPa, x2 = 0.7549 | 797.7 ± 0.3
313.15 K, 11000 kPa, x2 = 0.8978 | 799.4 ± 0.3
313.15 K, 12000 kPa, x2 = 0.0955 | 753 ± 0.3
313.15 K, 12000 kPa, x2 = 0.2526 | 756.8 ± 0.3
313.15 K, 12000 kPa, x2 = 0.7549 | 800.8 ± 0.3
313.15 K, 12000 kPa, x2 = 0.8978 | 803.7 ± 0.3
313.15 K, 13000 kPa, x2 = 0.0955 | 753.7 ± 0.4
313.15 K, 13000 kPa, x2 = 0.2526 | 757.6 ± 0.3
313.15 K, 13000 kPa, x2 = 0.7549 | 803.7 ± 0.3
313.15 K, 13000 kPa, x2 = 0.8978 | 807.9 ± 0.3
313.15 K, 14000 kPa, x2 = 0.0955 | 754.5 ± 0.4
313.15 K, 14000 kPa, x2 = 0.2526 | 758.4 ± 0.3
313.15 K, 14000 kPa, x2 = 0.7549 | 806.6 ± 0.3
313.15 K, 14000 kPa, x2 = 0.8978 | 812 ± 0.3
313.15 K, 15000 kPa, x2 = 0.0955 | 755.2 ± 0.4
313.15 K, 15000 kPa, x2 = 0.2526 | 759.2 ± 0.4
313.15 K, 15000 kPa, x2 = 0.7549 | 809.4 ± 0.3
313.15 K, 15000 kPa, x2 = 0.8978 | 815.9 ± 0.3
313.15 K, 16000 kPa, x2 = 0.0955 | 756 ± 0.4
313.15 K, 16000 kPa, x2 = 0.2526 | 759.9 ± 0.4
313.15 K, 16000 kPa, x2 = 0.7549 | 812.1 ± 0.3
313.15 K, 16000 kPa, x2 = 0.8978 | 819.5 ± 0.3
313.15 K, 17000 kPa, x2 = 0.0955 | 756.6 ± 0.4
313.15 K, 17000 kPa, x2 = 0.2526 | 760.7 ± 0.4
313.15 K, 17000 kPa, x2 = 0.7549 | 814.8 ± 0.3
313.15 K, 17000 kPa, x2 = 0.8978 | 823.1 ± 0.3
313.15 K, 18000 kPa, x2 = 0.0955 | 757.3 ± 0.4
313.15 K, 18000 kPa, x2 = 0.2526 | 761.4 ± 0.4
313.15 K, 18000 kPa, x2 = 0.7549 | 817.4 ± 0.3
313.15 K, 18000 kPa, x2 = 0.8978 | 826.6 ± 0.3
313.15 K, 19000 kPa, x2 = 0.0955 | 758 ± 0.4
313.15 K, 19000 kPa, x2 = 0.2526 | 762.1 ± 0.4
313.15 K, 19000 kPa, x2 = 0.7549 | 819.8 ± 0.3
313.15 K, 19000 kPa, x2 = 0.8978 | 830.1 ± 0.3
313.15 K, 20000 kPa, x2 = 0.0955 | 758.7 ± 0.4
313.15 K, 20000 kPa, x2 = 0.2526 | 762.8 ± 0.4
313.15 K, 20000 kPa, x2 = 0.7549 | 822.2 ± 0.3
313.15 K, 20000 kPa, x2 = 0.8978 | 833.3 ± 0.3
313.15 K, 21000 kPa, x2 = 0.0955 | 759.3 ± 0.4
313.15 K, 21000 kPa, x2 = 0.2526 | 763.5 ± 0.4
313.15 K, 21000 kPa, x2 = 0.7549 | 824.6 ± 0.3
313.15 K, 21000 kPa, x2 = 0.8978 | 836.4 ± 0.3
313.15 K, 22000 kPa, x2 = 0.0955 | 759.9 ± 0.4
313.15 K, 22000 kPa, x2 = 0.2526 | 764.2 ± 0.4
313.15 K, 22000 kPa, x2 = 0.7549 | 826.9 ± 0.3
313.15 K, 22000 kPa, x2 = 0.8978 | 839.5 ± 0.3
313.15 K, 23000 kPa, x2 = 0.0955 | 760.5 ± 0.4
313.15 K, 23000 kPa, x2 = 0.2526 | 764.8 ± 0.4
313.15 K, 23000 kPa, x2 = 0.7549 | 829.1 ± 0.3
313.15 K, 23000 kPa, x2 = 0.8978 | 842.6 ± 0.3
313.15 K, 24000 kPa, x2 = 0.0955 | 761.1 ± 0.4
313.15 K, 24000 kPa, x2 = 0.2526 | 765.4 ± 0.4
313.15 K, 24000 kPa, x2 = 0.7549 | 831.2 ± 0.3
313.15 K, 24000 kPa, x2 = 0.8978 | 845.4 ± 0.3
313.15 K, 25000 kPa, x2 = 0.0955 | 761.7 ± 0.4
313.15 K, 25000 kPa, x2 = 0.2526 | 766 ± 0.4
313.15 K, 25000 kPa, x2 = 0.7549 | 833.3 ± 0.3
313.15 K, 25000 kPa, x2 = 0.8978 | 848.2 ± 0.3
313.16 K, 8000 kPa, x2 = 0.5259 | 768.4 ± 0.3
313.16 K, 9000 kPa, x2 = 0.5259 | 769.6 ± 0.3
313.16 K, 10000 kPa, x2 = 0.5259 | 770.7 ± 0.3
313.16 K, 11000 kPa, x2 = 0.5259 | 771.9 ± 0.3
313.16 K, 12000 kPa, x2 = 0.5259 | 773 ± 0.3
313.16 K, 13000 kPa, x2 = 0.5259 | 774.1 ± 0.3
313.16 K, 14000 kPa, x2 = 0.5259 | 775.1 ± 0.3
313.16 K, 15000 kPa, x2 = 0.5259 | 776.2 ± 0.3
313.16 K, 16000 kPa, x2 = 0.5259 | 777.2 ± 0.3
313.16 K, 17000 kPa, x2 = 0.5259 | 778.2 ± 0.3
313.16 K, 18000 kPa, x2 = 0.5259 | 779.2 ± 0.3
313.16 K, 19000 kPa, x2 = 0.5259 | 780.2 ± 0.4
313.16 K, 20000 kPa, x2 = 0.5259 | 781.1 ± 0.4
313.16 K, 21000 kPa, x2 = 0.5259 | 782 ± 0.4
313.16 K, 23000 kPa, x2 = 0.5259 | 783.8 ± 0.4
313.16 K, 24000 kPa, x2 = 0.5259 | 784.6 ± 0.4
313.16 K, 25000 kPa, x2 = 0.5259 | 785.5 ± 0.4
323.14 K, 11000 kPa, x2 = 0.8978 | 772.5 ± 0.3
323.14 K, 12000 kPa, x2 = 0.8978 | 777.9 ± 0.3
323.14 K, 13000 kPa, x2 = 0.8978 | 782.8 ± 0.4
323.14 K, 14000 kPa, x2 = 0.8978 | 787.3 ± 0.4
323.14 K, 15000 kPa, x2 = 0.8978 | 791.5 ± 0.4
323.14 K, 16000 kPa, x2 = 0.8978 | 795.7 ± 0.4
323.14 K, 17000 kPa, x2 = 0.8978 | 799.7 ± 0.4
323.14 K, 18000 kPa, x2 = 0.8978 | 803.4 ± 0.3
323.14 K, 19000 kPa, x2 = 0.8978 | 807.2 ± 0.3
323.14 K, 20000 kPa, x2 = 0.8978 | 810.7 ± 0.3
323.14 K, 21000 kPa, x2 = 0.8978 | 814 ± 0.3
323.14 K, 22000 kPa, x2 = 0.8978 | 817.5 ± 0.3
323.14 K, 23000 kPa, x2 = 0.8978 | 820.7 ± 0.3
323.14 K, 24000 kPa, x2 = 0.8978 | 823.8 ± 0.3
323.14 K, 25000 kPa, x2 = 0.8978 | 826.7 ± 0.3
323.16 K, 9000 kPa, x2 = 0.0955 | 743.8 ± 0.3
323.16 K, 9000 kPa, x2 = 0.2526 | 747 ± 0.3
323.16 K, 10000 kPa, x2 = 0.0955 | 744.6 ± 0.3
323.16 K, 10000 kPa, x2 = 0.2526 | 747.9 ± 0.3
323.16 K, 11000 kPa, x2 = 0.0955 | 745.4 ± 0.3
323.16 K, 11000 kPa, x2 = 0.2526 | 748.7 ± 0.3
323.16 K, 11000 kPa, x2 = 0.7549 | 778.8 ± 0.4
323.16 K, 12000 kPa, x2 = 0.0955 | 746.2 ± 0.3
323.16 K, 12000 kPa, x2 = 0.2526 | 749.6 ± 0.3
323.16 K, 12000 kPa, x2 = 0.7549 | 781.9 ± 0.3
323.16 K, 13000 kPa, x2 = 0.0955 | 746.9 ± 0.4
323.16 K, 13000 kPa, x2 = 0.2526 | 750.4 ± 0.3
323.16 K, 13000 kPa, x2 = 0.7549 | 785.1 ± 0.3
323.16 K, 14000 kPa, x2 = 0.0955 | 747.7 ± 0.4
